Publication PMC8329300, “X-ray crystallography reveals molecular recognition mechanism for sugar binding in a melibiose transporter MelB” (Communications Biology, 2021)
Read-outs that look alike come from different tables or passages of the source.

Assays:
D59C MelBSt = target: T1, D59C MelBSt (Salmonella typhimurium, UniProt P30878, D59C); experiment: biochemical; assay type: binding
T1 construct: Cys scanning mutagenesis for the full-length MelBSt; His10 (C); made in house; host or cells: E. coli DW2
T1 sequence (P30878 whole entry D59C): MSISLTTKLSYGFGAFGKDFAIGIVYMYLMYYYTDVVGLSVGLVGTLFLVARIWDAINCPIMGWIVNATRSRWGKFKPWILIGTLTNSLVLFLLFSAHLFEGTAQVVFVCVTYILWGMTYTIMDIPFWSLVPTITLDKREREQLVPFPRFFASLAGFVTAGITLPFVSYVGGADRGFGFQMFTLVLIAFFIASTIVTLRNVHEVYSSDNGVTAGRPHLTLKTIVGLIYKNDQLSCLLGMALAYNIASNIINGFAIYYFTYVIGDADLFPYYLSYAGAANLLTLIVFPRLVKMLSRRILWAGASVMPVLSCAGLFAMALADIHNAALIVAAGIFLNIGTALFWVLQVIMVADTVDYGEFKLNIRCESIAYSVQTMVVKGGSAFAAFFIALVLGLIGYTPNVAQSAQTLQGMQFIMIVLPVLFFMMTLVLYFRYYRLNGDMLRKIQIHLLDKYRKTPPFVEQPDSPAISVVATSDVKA
Method: (§1) All ITC ligand-binding assays were performed with the TA Instruments (Nano-ITC device) at 25 °C. In a typical experiment, the titrand (MelBSt) in the ITC sample cell was titrated with the specified titrant (placed in the Syringe) by an incremental injection of 2-µL aliquots at an interval of 300 s at a constant stirring rate of 250 r.p.m. All samples were degassed using a TA Instruments Degassing Station (model 6326) for 15 min prior to the titration. Data processing was performed with the NanoAnalyze (version 3.6.0 software) provided with the ITC equipment. The normalized heat changes were subtracted from the heat of dilution elicited by last few injections, where no further binding occurred; the corrected heat changes were plotted against the molar ratio of titrant versus titrand. The values for association constant (Ka) value were determined by fitting the data with a one-site independent-binding model. At most cases, the binding stoichiometry (N) number was fixed to 1 since it is a known parameter, which can restrain the data fitting and achieve more accurate results. The dissociation constant Kd = 1/Ka.
(§2) Supplementary Figure 1. ITC measurements. ITC measurements were performed at 25 °C as described in Methods. (a) Binding thermography. For all tests, ligands and proteins are buffer- […]
(§3) (1 picture or pasted object on this page, not shown here) […]
(§4) matched. For melibiose binding measurements, a solution of 80 mM or 10 mM in the absence or presence of NaCl at 100 mM, was injected into the ITC sample cell containing the WT MelBSt at 80 μM without or with 100 mM NaCl, respectively. With the D59C mutant, […] was used. For α-NPG binding measurements, 0.5 mM or 0.4 mM solution was used to titrate the WT or D59C mutant at 50 μM in the absence or presence or 100 mM NaCl, respectively. For the Na+ or Li+ binding measurements, 5 mM or 2 mM solution was used to titrate WT MelBSt at 80 μM without or with 50 mM melibiose, respectively; 40 mM solutions was used to titrate the D59C mutant. (b) binding isotherm. Curve fit was carried out with a one-site independent-binding model included in the NanoAnalyze software (version 3.6.0).

WT MelBSt [1] = target: T2, WT MelBSt (Salmonella typhimurium, UniProt P30878); details: ITC 25 °C, data from publication or averaged with more tests, read-out: Kd of substrate binding, Melibiose, cited from earlier work
T2 construct: Cys scanning mutagenesis for the full-length MelBSt; His10 (C); made in house; host or cells: E. coli DW2
T2 sequence (P30878 whole entry): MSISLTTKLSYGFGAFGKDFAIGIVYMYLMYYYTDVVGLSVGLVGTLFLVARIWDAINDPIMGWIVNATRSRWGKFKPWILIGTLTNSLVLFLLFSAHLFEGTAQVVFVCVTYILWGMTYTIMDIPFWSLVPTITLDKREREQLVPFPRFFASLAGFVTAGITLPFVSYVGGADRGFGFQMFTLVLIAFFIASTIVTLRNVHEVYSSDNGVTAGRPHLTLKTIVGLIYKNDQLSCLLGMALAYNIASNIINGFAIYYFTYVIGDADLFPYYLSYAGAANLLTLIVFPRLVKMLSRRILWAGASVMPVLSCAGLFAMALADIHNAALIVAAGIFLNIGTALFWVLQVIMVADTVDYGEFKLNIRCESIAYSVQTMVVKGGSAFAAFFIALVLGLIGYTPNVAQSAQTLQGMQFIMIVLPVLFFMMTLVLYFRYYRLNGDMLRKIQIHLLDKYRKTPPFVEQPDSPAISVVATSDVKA

WT MelBSt [2] = target: T2, WT MelBSt; experiment: biochemical; assay type: binding; details: for Kd: Kd of substrate binding, α-NPG, ITC 25 °C
Method: as §1, §2, §3, §4

OC[C@H]1O[C@H](OCC2O[C@@H](O)[C@H](O)[C@@H](O)[C@@H]2O)[C@H](O)[C@@H](O)[C@H]1O (stereo partly drawn) [Melibiose]
Kd (D59C MelBSt; Apo, ITC 25 °C, read-out: Kd of substrate binding, Melibiose): 4.66 ± 0.1 mM
Kd (D59C MelBSt; Na+ (100 mM), ITC 25 °C, read-out: Kd of substrate binding, Melibiose): 4.96 ± 0.11 mM
Kd lower than that of WT (D59C MelBSt; apo state, melibiose binding): 2 fold
Kd (D59C MelBSt; read-out: Kd value for melibiose binding): 6 mM
Kd (WT MelBSt [1]; Apo): 9.28 ± 0.23 mM
Kd (WT MelBSt [1]; Na+ (100 mM)): 1.09 ± 0.06 mM

O=[N+]([O-])c1ccc(OC2OC(CO)C(O)C(O)C2O)cc1 [α-NPG, 4-nitrophenyl-α-D-galactopyranoside]
Kd (D59C MelBSt; Kd of substrate binding, α-NPG, Apo, ITC 25 °C): 0.0105 ± 0.00134 mM
Kd (D59C MelBSt; Kd of substrate binding, α-NPG, Na+ (100 mM), ITC 25 °C): 0.01197 ± 9e-05 mM
increased affinity versus WT (D59C MelBSt; apo D59C mutant): about 4 fold
Kd (WT MelBSt [2]; Apo): 43.2 ± 0.62 µM
Kd (WT MelBSt [2]; Na+ (100 mM)): 25.7 ± 4.42 µM
greater affinity compared to the native substrate melibiose (WT MelBSt [2]; from Table 1): 100 fold
